The values below come from patent US7994329B2, “Growth hormone secretagogue receptor type 1A agonists” (Helsinn Therapeutics (U.S.), Inc., priority 2000, dated 2011).

Assay [1] relates to food intake. The assay is described as follows: Food intake in non-deprived male Wistar rats (feeding boxes). It is filed as in vivo, rat. The following applies: 3 hours after injection. As to the method:
Food intake was measured in feeding boxes with standard chow and water placed on balances connected to a computer. Changes in weight of chow and water were continuously registered. Food and water intake were measured for 3 hours after drug injection during early daytime, when food intake is normally at a very low level.
The effect on feeding was tested after icy injections in non-deprived male Wistar rats. The compounds were dissolved in 5 μl saline and injected in the following doses: 10.0 μg per rat (NNC 26-1291) and 30.0 μg per rat (NN703 and NNC 26-1187).
Food intake was measured in feeding boxes, where standard chow and water were placed on balances and changes in weight continuously registered. Food and water intake was measured for 3 hours after drug injection in the beginning of the light part of the diurnal cycle, when food intake is normally at a very low level. […] For comparison, food intake in control animals is normally about 1 gram, and icy administration of 10 μg porcine neuropeptide Y (NPY), which has a strong effect on food intake, increases food consumption to about 8 grams in this model.
Non-deprived male Wistar rats (n=6-10) were used for the study, dosed with vehicle or with ghrelin at 10 μg/rat icy dissolved in 5 μl saline. Food intake was measured in conscious animals, using feeding boxes. Food and water intake were measured for 3 hours after drug injection during early daytime, when food intake is normally at a very low level. GH release was measured in Halothane-anaesthetized animals from which blood samples were obtained, before dosing and 10 min after dosing, via the orbital plexus. The plasma was analyzed for rat GH.

Assay [2] relates to rat pituitary cells. Kind of assay: GH secretion from rat pituitary cells. It is filed as cell-based.
The subject of assay [3] is GH release. The assay is described as follows: GH release in anaesthetized rats (plasma rat GH). It is filed as in vivo.
Protocol: Blood samples were obtained from anaesthetized animals before dosing, and either 10 min after dosing or by frequent blood sampling through a catheter up until 45 min after dosing. The plasma was analyzed for rat GH.
Non-deprived male Wistar rats (n=6-10) were used for the study, dosed with vehicle or with ghrelin at 10 μg/rat icy dissolved in 5 μl saline. […] GH release was measured in Halothane-anaesthetized animals from which blood samples were obtained, before dosing and 10 min after dosing, via the orbital plexus. The plasma was analyzed for rat GH.
In assay [4] the test system is GH release. The conditions noted are these: cited from earlier work.
Assay [5] has as its target T1, GHS-R 1A (Homo sapiens, UniProt Q92847).
T1 construct: expressed in transfected cells; host or cells: BHK cells, stably transfected
The assay is described as follows: Receptor binding assay, membranes of BHK/GHS-R 1A cells. On the procedure:
Briefly, crude membranes from stably transfected BHK/GHS-R 1A cells were suspended at 0.5 mg protein/ml in homogenization buffer (25 mM Tris-base, 2.5 mM EDTA, 10 mM MgCl2 and 30 μg/ml bacitracin). […] The filters were subsequently washed in 0.9% NaCl and counted using an Optiphase™ ‘HiSafe 3’ counter (Wallac, Turku, Finland).
Specific binding was determined as the difference between total binding and non-specific binding (binding in the presence of 10 μM unlabelled ligand). Binding curves were generated using either the non-linear regression or hyperbolic fit feature of the GraphPad™ Prism software package (GraphPad, San Diego, Calif., U.S.A.).

[6] abbreviates: read-out: Binding affinity to the GHS-R 1A (Ki).

Read-outs that look alike come from different tables or passages of the source. No end group written: not given here.

T1 sequence (Q92847 whole entry): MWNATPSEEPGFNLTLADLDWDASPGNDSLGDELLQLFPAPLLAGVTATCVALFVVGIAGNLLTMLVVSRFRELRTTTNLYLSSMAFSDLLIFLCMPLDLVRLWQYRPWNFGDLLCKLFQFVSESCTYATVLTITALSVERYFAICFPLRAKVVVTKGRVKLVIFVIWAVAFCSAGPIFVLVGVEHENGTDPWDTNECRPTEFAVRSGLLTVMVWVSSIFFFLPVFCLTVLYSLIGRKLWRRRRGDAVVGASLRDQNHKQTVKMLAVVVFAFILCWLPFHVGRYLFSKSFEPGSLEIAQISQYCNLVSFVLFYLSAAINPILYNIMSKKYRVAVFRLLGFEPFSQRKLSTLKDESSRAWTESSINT

In the case of `Nc1ncnc2c1ncn2[C@@H]1O[C@H](CO)[C@@H](O)[C@H]1O` [Adenosine, adenosine], the “Effect on food intake vs vehicle” value is “no effect” in assay [1] (1 μg/rat icy) and “food intake was significantly increased” in assay [1] (10 μg/rat icy). For the same compound, the “Stimulation of GH secretion from rat pituitary cells” value in assay [2] is recorded as “unable to stimulate GH secretion”. In addition, in assay [3] (adenosine 1 mg/kg iv, also 10 mg/kg iv in pentobarbital anaesthetized female SD rats), the “GH release after intravenous (iv) administration” value is “did not stimulate GH release”. Besides, in assay [3] (adenosine 10 and 100 μg/rat icy, Halothane anaesthetized male Wistar rats), the “GH release after intracerebroventricular (icy) administration” value is reported as “did not stimulate GH release”.

In the case of “ghrelin (GSSFLSPEHQRVQQRKESKKPPAKLQPR; ends and bridges not checked; UniProt Q9UBU3 24-51, looked up) [peptide described by Kojima in Nature (1999), vol; 402, 656-660, reference compound]”, the “GH release after iv administration” value in assay [4] was “causes stimulation of GH release”. The “Effect on food intake vs vehicle” value in assay [1] (10 μg/rat icy) is “significant effect on feeding”. Moreover, the “GH release after icy administration” value in assay [3] (ghrelin 10 μg/rat icy, Halothane-anaesthetized male Wistar rats, 10 min after dosing) is recorded as “did not stimulate GH release”.

Turning to `CN(C)N(C)C(=O)C1(Cc2ccccc2)CCCN(C(=O)[C@@H](Cc2c[nH]c3ccccc23)NC(=O)C(C)(C)N)C1` (stereo partly drawn) [NNC 26-1291], affinity in assay [5] was put at a Ki of 0.4 ± 0.06 nM.

For `CN(CCc1ccccn1)C(=O)[C@@H](Cc1ccccc1)N(C)C(=O)[C@@H](Cc1ccc2ccccc2c1)N(C)C(=O)/C=C/CC(C)(C)N` [NNC 26-1187], the Ki in assay [5] (setting [6]) was determined as 22.2 ± 7 nM.

For the compound `CNC(=O)[C@@H](Cc1ccccc1)N(C)C(=O)[C@@H](Cc1ccc2ccccc2c1)N(C)C(=O)/C=C/CC(C)(C)N` [NN703], the Ki in assay [5] (setting [6]) is 112 ± 29 nM. For the same compound, the Food intake result in assay [1] (30.0 μg per rat icy) is listed as “about 3 grams”.

Usually Ki stands for a measure of affinity in units of concentration, obtained from inhibition or displacement.
